Measured values published in patent publication US20230285353A1, “A CHEMICAL COCKTAIL DRIVING EXPANSION OF MYOGENIC STEM CELLS” (The Regents of the University of California, priority 2020, published 2023).

Test system: neonatal dermal fibroblast-like cells
Test: Screening small-molecules for myogenic induction (TnT+ cells)
Type: cell-based, mouse
Conditions: for induction of myogenic cells, factor added individually to FR: basic medium with 20 μM F and R, bFGF 50 ng/ml or AA 50 μg/ml
Experimental: The next day the original medium was replaced with a screening medium containing small-molecule cocktails: KnockOut DMEM (Thermo Fisher Scientific), 10% knockout serum replacement (Thermo Fisher Scientific), 10% FBS (Hyclone, Inc.), 2 mM GlutaMAX (Thermo Fisher Scientific), 1% nonessential amino acids (Thermo Fisher Scientific), 1% penicillin-streptomycin (Thermo Fisher Scientific) and 20 ng/ml bFGF (Stemgent) containing the various small molecules, including valproic acid ([…]), tranylcypromine (T, 5 μM), forskolin (F, 10 μM), and 5-aza-2'deoxycytidine (5-Aza) (5-aza, 5 μM). The medium was changed once every 2-3 days. After optimizing the cocktail of small molecules and concentrations, the screening medium was replaced with Fb medium for further screening of additional candidates that may improve myogenic efficiency, including ascorbic acid (50 μg/ml, Sigma), BMP4 (20 ng/ml, Stemgent), Insulin (10 μg/ml, Stemgent), IGF-1 (50 ng/ml, R&D Systems), PDGF (50 ng/ml, R&D Systems), and bFGF (50 ng/ml, Stemgent Inc.). For cell immunostaining, cells were fixed in 4% paraformaldehyde for 15 minutes and permeabilized with 0.5% Triton-X 100 in PBS for 15 minutes. Cells were then blocked with 5% donkey serum for 1 hour and incubated overnight at 4° C. with primary antibodies (diluted in 5% donkey serum), including TnT (mouse mAb, DSHB), Myh1E (MF 20, mouse mAb, DSHB), Myh2 (SC-71, mouse mAb, DSHB), Myh3 (F1.652, mouse mAb, DSHB), Myh4 (BF-F3, mouse mAb, DSHB), Myh7 (BA-D5, mouse mAb, DSHB), Myh8 (Rabbit pAb, Thermo Fisher Scientific, PA5-72846), […]7) (dystrophin, mouse mAb, DSHB), MyoD (mouse mAb, DSHB), MyoG (mouse mAb, DSHB), Pax7 (mouse mAb, DSHB), Sox 10 (goat pAb, R&D Systems, AF2864), Ki 67 (rabbit mAb, Abcam, ab16667), FSP1 (rabbit mAb, Sigma, 07-2274), CD 90.2-FITC (rat mAb, Thermo Fisher Scientific, 11-0903-81), P75 (rabbit pAb, Abcam, ab8874) and PDGFR-α (rat mAb, Thermo Fisher Scientific, 13-1401-82). Then appropriate Alexa Fluor 488- or Alexa Fluor 546- or Alexa Fluor 647-conjugated secondary antibodies (Thermo Fisher Scientific) were used for 1 hour at room temperature.

Row | Compound | induction of myogenic cells, factor added individually to FR | also measured
1 | Nc1ncn([C@H]2C[C@H](O)[C@@H](CO)O2)c(=O)n1 [5-Aza, 5-aza-2′deoxycytidine] |  | induction of TnT+ cells (5-Aza treatment of dermal cells): did not show any significant induction
2 | O=C1O[C@H]([C@@H](O)CO)C(O)=C1O [AA, ascorbic acid] | significantly enhanced | 
3 | Cc1cccc(-c2[nH]ncc2-c2ccc3ncccc3n2)n1 [R, RepSox] |  | efficiency of CiMC expansion from dermal cells with single agent (F or R alone): almost negligible
4 | basic fibroblast growth factor [bFGF] | significantly enhanced | 
